Key:
Type in all cases: cell-based
[1] = test system: HCC827 human NSCLC adenocarcinoma cells (mutant ERBB1, deletion of E746-A759 in exon 19); assay: Cell proliferation assay, HCC827; details: for Ratio (Wild-type ERBB1/Mutant ERBB1) HEKn/HCC827: GI50 ratio HEKn/HCC827; for GI50: Homo sapiens, HCC827 cells, 72 hrs; for Ratio (Wild-type ERBB1/Mutant ERBB1) A431/HCC827: GI50 ratio A431/HCC827
Description: (§1) The biological activity of a test compound was determined using cell proliferation assays. The activity against wild-type ERBB 1 was determined using A431 human epidermoid carcinoma cells (ATCC) and human epidermal keratinocytes, neonatal, or HEKn cells (ATCC).
(§2) A431 cells were grown in DMEM (Invitrogen) supplemented with 10% FBS (Lonza), 1% penicillin-streptomycin, and 2 mM glutamine (Invitrogen). HEKn cells were grown in EPILIFE® (Invitrogen) supplemented with HKGS (Invitrogen). HCC827 and H1975 were cultured in RPMI1640 supplemented with 10% FBS (Lonza), 1% penicillin-streptomycin, and 2 mM glutamine (Invitrogen). Cells were maintained and propagated at 37° C. and 5% CO2 in a humidified cell culture incubator. Aliquots of cells from early passages were preserved for liquid nitrogen storage. Frozen vials of cells were thawed at 37° C. water bath. Cells were spun to remove freezing medium. The newly revived frozen cells were adapted in culture for 10 days before used for compound testing. Cells used in the assay were less than 20 subculture passages or 3 months in culture.
(§3) The test compounds were dissolved in dimethylsulfoxide (DMSO) and stored at -20° C. before testing. […] The cells were placed in a culture incubator overnight. Next day, test compounds in DMSO were added to the cells and placed back in the culture incubator for 72 hrs. In the meantime, the cell numbers at time zero of the compound treatment (T0) was measured by ENERCOUNT® (Codex BioSolutions). At the end of the compound treatment, the cell numbers were again measured by EnerCount as T72 values. The untreated controls (Ctrl) were cell numbers recorded from the 0.1% DMSO treatment. The percent growth inhibition by the test compound was calculated by the formula: (1- (T72-T0)/(Ctrl-T0)) x 100.
(§4) The results are summarized in Tables 1 and 2, wherein A represents a value no greater than 500 nM, B represents a value greater than 500 nM but no greater than 1 µM, C represents a value greater than 1 µM but no greater than 5 µM, and D represents a value greater than 5 µM; and wherein A′ represents a ratio of greater than 10, B′ represents a ratio of no greater than 10 but no less than 5, C′ represents a ratio of no greater than 5 but no less than 2, and D′ represents a ratio of no greater than 2.

[2] = test system: human epidermal keratinocytes, neonatal, or HEKn cells (wild-type ERBB1); assay: Cell proliferation assay, HEKn; details: Keratinocyte, 72 hrs
Description: as §1, §2, §3, §4

[3] = test system: H1975 human NSCLC adenocarcinoma cells (drug-resistant mutant ERBB1, T790M in-cis with L858R); assay: Cell proliferation assay, H1975; details: for Ratio (Wild-type ERBB1/Mutant ERBB1) HEKn/H1975: GI50 ratio HEKn/H1975; for Ratio (Wild-type ERBB1/Mutant ERBB1) A431/H1975: GI50 ratio A431/H1975; for GI50: Homo sapiens, NCI-H1975, H1975 cells, 72 hrs
Description: as §1, §2, §3, §4

[4] = test system: A431 human epidermoid carcinoma cells (wild-type ERBB1); assay: Cell proliferation assay, A431; details: A-431, 72 hrs
Description: as §1, §2, §3, §4

[5] = numeric values, reference compounds

GI50 [1, 5] [µM] | GI50 [4] [µM] | GI50 [1] [µM] | GI50 [3] [µM] | Structure (SMILES) | Ratio (Wild-type ERBB1/Mutant ERBB1) HEKn/HCC827 [1] | GI50 [2, 5] [µM] | Ratio (Wild-type ERBB1/Mutant ERBB1) HEKn/H1975 [3] | Ratio (Wild-type ERBB1/Mutant ERBB1) A431/HCC827 [1] | GI50 [2] [µM] | Ratio (Wild-type ERBB1/Mutant ERBB1) A431/H1975 [3]
0.032 |  |  |  | C=CC(=O)Nc1cccc(Nc2nc(Nc3ccc(N4CCN(C(C)=O)CC4)cc3OC)ncc2C(F)(F)F)c1 [CO-1686] | A′ (A′ represents a ratio of greater than 10) | 2.5 | A′ (A′ represents a ratio of greater than 10) |  |  | 
 | < 0.5 | < 0.5 | < 0.5 | C=CC(=O)N1CCCC[C@@H](n2c(NC(=O)c3ccnc(C)c3)nc3cccc(OC4CCN(CC)CC4)c32)C1 [Compound A1, (R)-N-(1-(1-Acryloylazepan-3-yl)-7-((1-ethylpiperidin-4-yl)oxy)-1H-benzo[d]imidazol-2-yl)-2-methylisonicotinamide] | A′ (A′ represents a ratio of greater than 10) |  | A′ (A′ represents a ratio of greater than 10) | A′ (A′ represents a ratio of greater than 10) | 1 to 5 | A′ (A′ represents a ratio of greater than 10)
 | > 5 | < 0.5 | < 0.5 | C=CC(=O)N1CCC(Oc2cccc3nc(NC(=O)c4ccnc(C)c4)n([C@@H]4CCCCN(C(=O)C=C)C4)c23)CC1 [Compound A3, (R)-N-(1-(1-acryloylazepan-3-yl)-7-((1-acryloylpiperidin-4-yl)oxy)-1H-benzo[d]imidazol-2-yl)-2-methylisonicotinamide] | A′ (A′ represents a ratio of greater than 10) |  | A′ (A′ represents a ratio of greater than 10) | A′ (A′ represents a ratio of greater than 10) | 1 to 5 | B′ (B′ represents a ratio of no greater than 10 but no less than 5)
 | 1 to 5 | < 0.5 | < 0.5 | C=CC(=O)N1CCCC[C@@H](n2c(NC(=O)c3ccnc(C)c3)nc3cc(OC(F)(F)F)cc(Cl)c32)C1 [Compound A4, (R)-N-(1-(1-Acryloylazepan-3-yl)-7-chloro-5-(trifluoromethoxy)-1H-benzo[d]imidazol-2-yl)-2-methylisonicotinamide] | A′ (A′ represents a ratio of greater than 10) |  | C′ (C′ represents a ratio of no greater than 5 but no less than 2) | A′ (A′ represents a ratio of greater than 10) | 1 to 5 | C′ (C′ represents a ratio of no greater than 5 but no less than 2)
 | 1 to 5 | < 0.5 | < 0.5 | Cc1cc(C(=O)Nc2nc3cc(OC(F)(F)F)cc(Cl)c3n2[C@@H]2CCCCN(C(=O)/C=C/CN(C)C)C2)ccn1 [Compound A5, (R,E)-N-(7-Chloro-1-(1-(4-(dimethylamino)but-2-enoyl)azepan-3-yl)-5-(trifluoromethoxy)-1H-benzo[d]imidazol-2-yl)-2-methylisonicotinamide] | A′ (A′ represents a ratio of greater than 10) |  | A′ (A′ represents a ratio of greater than 10) | A′ (A′ represents a ratio of greater than 10) | 1 to 5 | C′ (C′ represents a ratio of no greater than 5 but no less than 2)
 | 1 to 5 | < 0.5 | < 0.5 | C=CC(=O)N1CCCC[C@@H](n2c(NC(=O)c3ccnc(C(F)(F)F)c3)nc3ccc4c(c32)OCCO4)C1 [Compound B1-A, (R)-N-(1-(1-acryloylazepan-3-yl)-7,8-dihydro-1H-[1,4]dioxino[2′,3′:3,4]benzo[1,2-d]imidazol-2-yl)-2-(trifluoromethyl)isonicotinamide] |  |  |  |  | > 5 | 
 | 1 to 5 | < 0.5 | < 0.5 | C=CC(=O)N1CCCC[C@@H](n2c(NC(=O)c3ccnc(C)c3)nc3ccc4c(c32)OCCO4)C1 [Compound C1-A, (R)-N-(1-(1-acryloylazepan-3-yl)-7,8-dihydro-1H-[1,4]dioxino[2′,3′:3,4]benzo[1,2-d]imidazol-2-yl)-2-methylisonicotinamide] |  |  |  |  | 1 to 5 | 
 | 1 to 5 | < 0.5 | < 0.5 | C=CC(=O)N1CCCC[C@@H](n2c(NC(=O)c3ccnc(OC)c3)nc3ccc4c(c32)OCCO4)C1 [Compound C2-A, (R)-N-(1-(1-acryloylazepan-3-yl)-7,8-dihydro-1H-[1,4]dioxino[2′,3′:3,4]benzo[1,2-d]imidazol-2-yl)-2-methoxyisonicotinamide] |  |  |  |  | 1 to 5 | 
